According to patent US20120029187A1, “HALOALKYLSULFONANILIDE DERIVATIVE” (Nissan Chemical Industries, Ltd., priority 2009, published 2012):

Tests used:
Type in all cases: in vivo
[1] = tested on: beadstraw; assay: Test Example 3: herbicidal effects in soil treatment; settings: dose 3.2 g/a
Summary of the method: (§1)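 Seeds were sown in sterilized diluvial soil and covered with about 1.5 cm of soil. Compounds, formulated as emulsifiable concentrates and diluted with water, were sprayed evenly over the soil surface at set doses in g/a. Herbicidal effect was scored on a rating scale three weeks later.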

[2] = tested on: redroot pigweed; assay: as above; settings: dose 3.2 g/a
Summary of the method: as §1

[3] = tested on: giant foxtail; assay: as above; settings: dose 3.2 g/a
Summary of the method: as §1

[4] = tested on: water foxtail; assay: as above; settings: dose 3.2 g/a
Summary of the method: as §1

[5] = tested on: common lambsquater; assay: as above; settings: dose 3.2 g/a
Summary of the method: as §1

[6] = tested on: common ragweed; assay: as above; settings: dose 3.2 g/a
Summary of the method: as §1

[7] = tested on: large crabgrass; assay: as above; settings: dose 3.2 g/a
Summary of the method: as §1

[8] = tested on: velvetleaf; assay: as above; settings: dose 3.2 g/a
Summary of the method: as §1

[9] = tested on: posumbu knotweed; assay: as above; settings: dose 3.2 g/a
Summary of the method: as §1

[10] = tested on: common chickweed; assay: as above; settings: dose 3.2 g/a
Summary of the method: as §1

[11] = tested on: Italian ryegrass; assay: as above; settings: dose 3.2 g/a
Summary of the method: as §1

[12] = tested on: barnyardgrass; assay: as above; settings: dose 3.2 g/a
Summary of the method: as §1

[13] = tested on: transplanted rice; assay: Test Example 1: preemergence treatment under submerged conditions, effect on crop; settings: dose 2.52 g/a
Summary of the method: (§2)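 Weed seeds and 2.5-leaf rice seedlings shared each flooded cup of alluvial soil. Dosing, expressed as g per are, was by pouring water-diluted emulsifiable concentrate onto the surface on sowing day. Mortality was graded 0 to 5 after three weeks' growth.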

[14] = tested on: ducksalad; assay: Test Example 2: herbicidal effects during the vegetation period under submerged conditions; settings: treatment during the vegetation period under submerged conditions; dose 2.52 g/a
Summary of the method: (§3)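 Barnyardgrass, bulrush and ducksalad were co-sown in alluvial soil flooded to 4 cm and grown in a greenhouse at 25 to 30° C. At the 1- or 2-leaf stage, water-diluted emulsifiable concentrates went onto the water surface at set doses (g/a). Herbicidal effect was scored three weeks later on a graded scale.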

[15] = tested on: bulrush; assay: as above; settings: treatment during the vegetation period under submerged conditions; dose 2.52 g/a
Summary of the method: as §3

[16] = tested on: barnyardgrass; assay: as above; settings: treatment during the vegetation period under submerged conditions; dose 2.52 g/a
Summary of the method: as §3

[17] = tested on: beadstraw; assay: Test Example 4: herbicidal effect in foliage treatment; settings: dose 3.2 g/a, three weeks after application
Summary of the method: (§4)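 Seeds were spot-sown in boxes of sterilized diluvial soil and raised in a greenhouse (25 to 30° C) for 14 days before a single foliar application. Compounds were applied as emulsifiable concentrates diluted with water, at predetermined doses in g/a. Injury was graded three weeks post-spray.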

[18] = tested on: redroot pigweed; assay: as above; settings: dose 3.2 g/a, three weeks after application
Summary of the method: as §4

[19] = tested on: giant foxtail; assay: as above; settings: dose 3.2 g/a, three weeks after application
Summary of the method: as §4

[20] = tested on: water foxtail; assay: as above; settings: dose 3.2 g/a, three weeks after application
Summary of the method: as §4

[21] = tested on: common lambsquater; assay: as above; settings: dose 3.2 g/a, three weeks after application
Summary of the method: as §4

[22] = tested on: common ragweed; assay: as above; settings: dose 3.2 g/a, three weeks after application
Summary of the method: as §4

[23] = tested on: large crabgrass; assay: as above; settings: dose 3.2 g/a, three weeks after application
Summary of the method: as §4

[24] = tested on: velvetleaf; assay: as above; settings: dose 3.2 g/a, three weeks after application
Summary of the method: as §4

[25] = tested on: posumbu knotweed; assay: as above; settings: dose 3.2 g/a, three weeks after application
Summary of the method: as §4

[26] = tested on: common chickweed; assay: as above; settings: dose 3.2 g/a, three weeks after application
Summary of the method: as §4

[27] = tested on: Italian ryegrass; assay: as above; settings: dose 3.2 g/a, three weeks after application
Summary of the method: as §4

[28] = tested on: barnyardgrass; assay: as above; settings: dose 3.2 g/a, three weeks after application
Summary of the method: as §4

[29] = tested on: ducksalad; assay: Test Example 1: herbicidal effects in preemergence treatment under submerged conditions; settings: dose 2.52 g/a
Summary of the method: as §2

[30] = tested on: bulrush; assay: as above; settings: dose 2.52 g/a
Summary of the method: as §2

[31] = tested on: barnyardgrass; assay: as above; settings: dose 2.52 g/a
Summary of the method: as §2

Question: How did the “O: beadstraw, herbicidal effect (evaluation scale 0-5)” value [1] turn out when `CCOC(=O)N(c1ccccc1CN1COC2(CCC2)CC1=O)S(=O)(=O)C(F)(F)F` [II-63] was run?
Answer: 4 (mortality of at least 70% and less than 90%)

Question: And the “K: redroot pigweed, herbicidal effect (evaluation scale 0-5)” value [2]?
Answer: 4 (mortality of at least 70% and less than 90%)

Question: What about the “E: giant foxtail, herbicidal effect (evaluation scale 0-5)” value [3] of the same compound?
Answer: 5 (mortality of 90% or above (nearly complete death))

Question: What about the “G: water foxtail, herbicidal effect (evaluation scale 0-5)” value [4] of the same compound?
Answer: 5 (mortality of 90% or above (nearly complete death))

Question: What about the “L: common lambsquater, herbicidal effect (evaluation scale 0-5)” value [5] of the same compound?
Answer: 3 (mortality of at least 40% and less than 70%)

Question: And the “J: common ragweed, herbicidal effect (evaluation scale 0-5)” value [6]?
Answer: 4 (mortality of at least 70% and less than 90%)

Question: And the “D: large crabgrass, herbicidal effect (evaluation scale 0-5)” value [7]?
Answer: 5 (mortality of 90% or above (nearly complete death))

Question: What about the “I: velvetleaf, herbicidal effect (evaluation scale 0-5)” value [8] of the same compound?
Answer: 5 (mortality of 90% or above (nearly complete death))

Question: What about the “M: posumbu knotweed, herbicidal effect (evaluation scale 0-5)” value [9] of the same compound?
Answer: 4 (mortality of at least 70% and less than 90%)

Question: What about the “N: common chickweed, herbicidal effect (evaluation scale 0-5)” value [10] of the same compound?
Answer: 5 (mortality of 90% or above (nearly complete death))

Question: What about the “H: Italian ryegrass, herbicidal effect (evaluation scale 0-5)” value [11] of the same compound?
Answer: 4 (mortality of at least 70% and less than 90%)

Question: And the “A: barnyardgrass, herbicidal effect (evaluation scale 0-5)” value [12]?
Answer: 5 (mortality of 90% or above (nearly complete death))

Question: And the “a: transplanted rice, effect on crop (evaluation scale 0-5)” value [13]?
Answer: 1 (mortality of at least 5% and less than 20%)

Question: And the “C: ducksalad, herbicidal effect (evaluation scale 0-5)” value [14]?
Answer: 5 (mortality of 90% or above (nearly complete death))

Question: What about the “B: bulrush, herbicidal effect (evaluation scale 0-5)” value [15] of the same compound?
Answer: 5 (mortality of 90% or above (nearly complete death))

Question: And the “A: barnyardgrass, herbicidal effect (evaluation scale 0-5)” value [16]?
Answer: 5 (mortality of 90% or above (nearly complete death))

Question: What about the “O: beadstraw, herbicidal effect” value [17] of the same compound?
Answer: 3 (mortality of at least 40% and less than 70%)

Question: And the “K: redroot pigweed, herbicidal effect” value [18]?
Answer: 2 (mortality of at least 20% and less than 40%)

Question: What about the “E: giant foxtail, herbicidal effect” value [19] of the same compound?
Answer: 4 (mortality of at least 70% and less than 90%)

Question: And the “G: water foxtail, herbicidal effect” value [20]?
Answer: 5 (mortality of 90% or above (nearly complete death))

Question: And the “L: common lambsquater, herbicidal effect” value [21]?
Answer: 3 (mortality of at least 40% and less than 70%)

Question: What about the “J: common ragweed, herbicidal effect” value [22] of the same compound?
Answer: 4 (mortality of at least 70% and less than 90%)

Question: And the “D: large crabgrass, herbicidal effect” value [23]?
Answer: 4 (mortality of at least 70% and less than 90%)

Question: And the “I: velvetleaf, herbicidal effect” value [24]?
Answer: 5 (mortality of 90% or above (nearly complete death))

Question: And the “M: posumbu knotweed, herbicidal effect” value [25]?
Answer: 4 (mortality of at least 70% and less than 90%)

Question: And the “N: common chickweed, herbicidal effect” value [26]?
Answer: 4 (mortality of at least 70% and less than 90%)

Question: And the “H: Italian ryegrass, herbicidal effect” value [27]?
Answer: 4 (mortality of at least 70% and less than 90%)

Question: And the “A: barnyardgrass, herbicidal effect” value [28]?
Answer: 5 (mortality of 90% or above (nearly complete death))

Question: What about the “C: ducksalad, herbicidal effect (evaluation scale 0-5)” value [29] of the same compound?
Answer: 5 (mortality of 90% or above (nearly complete death))

Question: What about the “B: bulrush, herbicidal effect (evaluation scale 0-5)” value [30] of the same compound?
Answer: 5 (mortality of 90% or above (nearly complete death))

Question: What about the “A: barnyardgrass, herbicidal effect (evaluation scale 0-5)” value [31] of the same compound?
Answer: 5 (mortality of 90% or above (nearly complete death))
